Bridge positions count the residues as written; N and C are the ends. Square brackets hold non-standard residues; d marks the D form. Triazole bridges read from a SMILES are 1,4-linked. Peptide text beside a SMILES is read from it. Lys(N3) = [N-]=[N+]=NCCCC[C@H](N)C(=O)O; Pra = C#CC[C@H](N)C(=O)O; Ahx = NCCCCCC(=O)O
What was measured:
[1] = circular dichroism; conditions: PBS (10 mM phosphate, 137 mM NaCl, 2.7 mM KCl); pH 7.4; rt °C; 100 uM
[2] = molecular target: T1, Panx1 channels (Mus musculus, UniProt Q9JIP4); experiment: Yo-Pro-1 dye uptake assay in B16-BL6 cells; type: cell-based; conditions: for decrease of HOS-induced Yo-Pro-1 uptake: 100 µM, 30 min HOS
T1 sequence (Q9JIP4 whole entry): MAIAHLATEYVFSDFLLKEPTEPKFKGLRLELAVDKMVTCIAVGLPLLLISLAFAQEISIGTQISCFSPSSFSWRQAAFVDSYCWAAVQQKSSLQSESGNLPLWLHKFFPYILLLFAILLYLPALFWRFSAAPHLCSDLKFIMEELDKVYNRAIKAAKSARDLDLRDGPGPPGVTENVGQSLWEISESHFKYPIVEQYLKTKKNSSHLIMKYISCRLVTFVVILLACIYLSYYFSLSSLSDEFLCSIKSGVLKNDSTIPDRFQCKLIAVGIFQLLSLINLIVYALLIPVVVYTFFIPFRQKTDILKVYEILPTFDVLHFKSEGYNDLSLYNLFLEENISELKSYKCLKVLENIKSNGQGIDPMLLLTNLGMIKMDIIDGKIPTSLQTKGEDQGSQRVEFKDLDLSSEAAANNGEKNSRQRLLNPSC
Protocol: The ability of the two previously identified lead compounds, SBL-PX1–42 and SBL-PX1-44, to affect the cellular uptake of ions and small molecules through Panx1 channels was evaluated in Yo-Pro-1 uptake assays. Yo-Pro-1 is a small fluorescent dye of 629 Da able to diffuse into cells through open Panx1 channels and emit green fluorescence when binding to nucleic acids in the cells.[66],[67] A representative example showing Yo-Pro-1 uptake over time is given in the Supporting Information (Figure S4). As expected, HOS induced a rapid Yo-Pro-1 uptake, which continued to increase gradually over time. […] While a small nonsignificant inhibition (14%) of Yo-Pro-1 uptake was observed when cells were exposed to 100 μM of ^10Panx1, the same concentration of the SBL-PX1-42 or SBL-PX1-44 analogues decreased Yo-Pro-1 uptake by 26 and 27%, respectively (Figure 3E). […] Among other possibilities, the reduced efficacy of the peptidomimetics in Yo-Pro-1 uptake assays, as compared to ATP release assays, may be attributed to the difference in size between ATP and Yo-Pro-1 or to the different repartition of charges in the two molecules.
B16-BL6 cells were plated on 96-well plates and grown until confluency. […] Cells were then incubated in the HOS solution containing the aforementioned compounds. Yo-Pro-1 (5 μM, Life Technologies) was added to the cells, and fluorescence was continuously recorded for 30 min with FDSS/μCELL Functional Drug Screening System (Hamamatsu Photonics). Yo-Pro-1 uptake in each condition was expressed as a percentage of HOS-induced Yo-Pro-1 uptake. […] Triplicates were performed for each independent experiment.

[3] = tested on: B16-BL6 cells; experiment: LDH cytotoxicity assay in B16-BL6 cells; type: cell-based, mouse; conditions: peptides 100 to 6.25 µM, Pbn 2.5 mM, HOS solution
[4] = Circular dichroism spectroscopy (helicity); type: physicochemical; conditions: PBS, 20 to 90 °C
Protocol: Spectra were measured with a JASCO J-715 CD spectropolarimeter equipped with a temperature controller using a 1 mm path length quartz cuvette and a scan rate of […]. The spectra were recorded in the wavelength range of 190–260 nm with a resolution and a bandwidth of 0.5 and 1.0 nm, respectively. The sensitivity and scan rate of the spectrometer were set to 100 mdeg and 50 nm min^–1, respectively. Samples were prepared in phosphate-buffered saline (PBS, 10 mM phosphate, 137 mM sodium chloride, 2.7 mM potassium chloride, pH 7.4, at room temperature) to the final concentration of 100 μM with or without 2,2,2-trifluoroethanol (TFE). CD spectra were averaged over 3–5 scans with the baseline subtracted from analogous conditions as those for the samples and converted to the mean residue ellipticity. Helicity was calculated as previously reported (see the Supporting Information).[52]

[5] = In vitro proteolytic stability in human plasma; type: in vitro ADME
Protocol: The proteolytic stability of the peptides was determined through in vitro stability assays in human plasma, as previously reported.[31],[89] Briefly, a stock solution of the peptide was prepared at a concentration of 1–2 mm in Milli-Q water and was used for further dilutions. Prior to the actual stability testing, the selectivity of the assay and stability of the working solutions were evaluated in parallel with an assessment of the linearity, accuracy, and precision of the method using three separately prepared calibration curves. The samples were analyzed by RP-HPLC on an Agilent 1200 series gradient HPLC system in combination with an EC HPLC column EC 150/2 NUCLEODUR (C18 HTec, 3 μm length: 150 mm, ID: 2 mm. Macherey-Nagel). The half-lives of the peptides were calculated by interpolating the data based on the obtained calibration curve. Afterward, the log concentrations as a function of time were transferred to a semi-log chart. Metabolites were identified by reanalyzing the samples using LC-MS on the same system previously described.[31]

[6] = molecular target: T2, Panx1 channels (Homo sapiens, UniProt Q96RD7); experiment: HOS-induced ATP release assay in EA.hy926 endothelial cells; type: cell-based; conditions: for inhibition at 100 µM: EA.hy 926, read-out: % ATP release inhibition at 100µM (in EA.hy926 cells)
T2 construct: host or cells: EA.hy926 human endothelial cells
T2 sequence (Q96RD7 whole entry): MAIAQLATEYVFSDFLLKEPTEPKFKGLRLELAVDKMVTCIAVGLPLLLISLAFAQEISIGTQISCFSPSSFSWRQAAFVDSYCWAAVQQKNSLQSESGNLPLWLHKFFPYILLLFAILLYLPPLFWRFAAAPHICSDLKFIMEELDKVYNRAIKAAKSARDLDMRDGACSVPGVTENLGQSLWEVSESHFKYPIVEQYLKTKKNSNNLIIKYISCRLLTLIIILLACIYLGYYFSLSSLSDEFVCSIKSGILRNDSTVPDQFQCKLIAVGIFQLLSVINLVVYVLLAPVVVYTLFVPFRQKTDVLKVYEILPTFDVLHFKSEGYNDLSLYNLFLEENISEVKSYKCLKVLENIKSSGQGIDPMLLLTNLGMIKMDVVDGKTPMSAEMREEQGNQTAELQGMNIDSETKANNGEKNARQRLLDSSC
Protocol: Similar to B16-BL6 cells, a 2–3-fold enhancement of ATP release from EA.hy926 cells was observed upon HOS stimulation (Figure 7E). However, the absolute levels of ATP release were lower in these endothelial cells (around 300 vs 500–600 nM in B16-BL6 cells). As expected, Pbn reduced HOS-induced ATP release from EA.hy926 cells, albeit by a lower fraction than the one observed in B16-BL6 cells (Figure 7E vs7A). The reason for this different efficacy of Pbn is unknown but may be due to its nonspecific action on other ATP release channels or transporters,[68] of which the expression naturally varies among different cell types. […] The water-soluble double-stapled ^10Panx1 peptidomimetic SBL-PX1-206 reduced HOS-induced ATP release from EA.hy926 cells by about 25% at 12.5 μM. […] Stapled and double-stapled ^10Panx1 analogues were also not cytotoxic when tested at 100 and 12.5 μM in EA.hy926 cells (Supporting Information, Figure S8).
(§1) Triplicates were performed for each independent experiment.

[7] = molecular target: T1, Panx1 channels; experiment: HOS-induced ATP release assay in B16-BL6 cells; conditions: for inhibition at 100 µM: B16-BL6, read-out: % ATP release inhibition at 100µM (in B16-BL6 cells)
[8] = Water solubility (observation); type: physicochemical
[9] = tested on: H9c2 cells; experiment: ATP release assay in Panx1-lacking H9c2 cells (specificity); type: cell-based, rat; conditions: peptides 100 or 12.5 µM, Pbn 2.5 mM, 30 min HOS
Excerpt: The cardiomyoblast cell line (H9c2) was chosen to assess the specificity of the stapled ^10Panx1 analogues. Panx1 mRNA was not found in undifferentiated H9c2 cells or after differentiation into cardiomyocyte-like cells, while it was readily detected in our positive controls (kidney and liver samples; Supporting Information, Figure S5B). The absence of Panx1 protein expression was confirmed by Western blot analysis in both undifferentiated and differentiated H9c2 cells (Supporting Information, Figure S5C) as well as by immunostaining on H9c2 cells (Supporting Information, Figure S5D). […] Of note, the low concentration of ATP release in H9c2 cells compared to B16-BL6 cells (47 vs 513 nM, respectively, see dotted line in Supporting Information, Figure S5E) cannot be attributed to low cellular content of the metabolite because a high level of ATP was found in the supernatant (1170 nM) when cells were lysed with Triton X-100.
as §1

## CC(=O)N[C@@H](CO)C(=O)N[C@@H](Cc1c[nH]c2ccccc12)C(=O)N[C@@H](CCCNC(=N)N)C(=O)N[C@@H](CCC(N)=O)C(=O)N[C@@H](C)C(=O)N[C@H]1Cc2cn(nn2)CCCC[C@@H](C(=O)N[C@@H](Cc2ccc(O)cc2)C(N)=O)NC(=O)[C@H](CC(=O)O)NC(=O)[C@H](C(C)C)NC(=O)[C@H](Cc2ccccc2)NC1=O [SBL-PX1-42]
[1]
  helicity: 56%
[2]
  decrease of HOS-induced Yo-Pro-1 uptake: 26%
[3]
  cytotoxicity (extracellular LDH): no cytotoxicity
[4]
  thermal stability of α-helical profile (CD at varying temperatures): high thermal stability
[5]
  fold longer half-life in human plasma compared to ^10Panx1: 30 fold
[5]; 37 °C
  half-life t1/2 in human plasma: 1.102 ± 0.00867 h
[6]
  inhibition at 100 µM: 26%
[7]
  inhibition at 100 µM: 39%

## CC(C)[C@@H]1NC(=O)[C@H](Cc2ccccc2)NC(=O)[C@@H](NC(=O)[C@@H]2CCCCn3cc(nn3)C[C@H](NC(=O)CCCCCNC(=O)[C@@H](N)CCCCN)C(=O)N[C@@H](Cc3c[nH]c4ccccc34)C(=O)N[C@@H](CCCNC(=N)N)C(=O)N[C@@H](CCC(N)=O)C(=O)N2)Cc2cn(nn2)CCCC[C@@H](C(=O)N[C@@H](Cc2ccc(O)cc2)C(N)=O)NC(=O)[C@H](CC(=O)O)NC1=O [SBL-PX1-206] (H-K[Ahx][Pra]WRQ[Lys(N3)][Pra]FVD[Lys(N3)]Y-NH2; triazole 3-7, 8-12 (inferred))
[1]
  helicity: 44%
[5]; after 24 h, human plasma, 37 °C
  only identified metabolite (lysine of solubilizing tail cleaved) present in solution: around 80%
[6]; 12.5 µM
  reduction of HOS-induced ATP release from EA.hy926 cells: about 25%
[6]
  inhibition at 100 µM: 15%
[8]
  water solubility: water-soluble

## CC(=O)N[C@H]1Cc2cn(nn2)CCCC[C@@H](C(=O)N[C@@H](C)C(=O)N[C@@H](Cc2ccccc2)C(=O)N[C@H](C(=O)N[C@@H](CC(=O)O)C(=O)N[C@@H](CO)C(=O)N[C@@H](Cc2ccc(O)cc2)C(N)=O)C(C)C)NC(=O)[C@H](CCC(N)=O)NC(=O)[C@H](CCCNC(=N)N)NC(=O)[C@H](Cc2c[nH]c3ccccc23)NC1=O [SBL-PX1-44]
[1]
  helicity: 41%
[2]
  decrease of HOS-induced Yo-Pro-1 uptake: 27%
[3]
  cytotoxicity (extracellular LDH): no cytotoxicity
[5]
  fold longer half-life in human plasma compared to ^10Panx1: 30 fold
[5]; 37 °C
  half-life t1/2 in human plasma: 1.04 ± 0.0418 h
[6]
  inhibition at 100 µM: 41%
[7]
  inhibition at 100 µM: 33%

## CCCN(CCC)S(=O)(=O)c1ccc(C(=O)O)cc1 [Pbn, probenecid, reference compound]
[2]; 2.5 mM, 30 min
  inhibition of Yo-Pro-1 uptake: final lower level than the basal Tyrode conditions
[3]
  cytotoxicity (extracellular LDH): no cytotoxicity
[9]
  inhibition of ATP release in H9c2 cells: No inhibition
[6]; 2.5 mM
  reduction of HOS-induced ATP release from EA.hy926 cells: around 35%
[7]; 2.5 mM, B16-BL6 cells, 30 min HOS
  reduction of HOS-induced ATP release: 61%

From publication PMC10544015 (Journal of Medicinal Chemistry, 2023)
